Source: patent US20030125234A1, “Alteration of protein stability” (priority 2001, published 2003)

What was measured:
Format in all cases: biochemical
[1] = molecular target: T1, chicken egg white lysozyme (Gallus gallus, UniProt P00698); assay: Lysozyme aggregation (turbidity at 360 nm) induced by DTT; conditions: Lysozyme 0.4 mg/mL, 25° C., DTT; compound 1,000×; standard deviation in parenthesis
T1 construct: chicken egg white lysozyme [Sigma]; purchased Sigma; host or cells: egg white
Description: (§1) Bovine insulin [Sigma, St. Louis, Mo., USA] was dissolved in phosphate saline (PBS) (50 mM sodium biphosphate, 100 mM sodium chloride), pH 7.0, bovine alpha-lactalbumin [Sigma] in 50 mM sodium phosphate, 100 mM sodium chloride and 2 mM EDTA, pH 6.2, chicken egg white lysozyme [Sigma] in 100 mM Tris, 1 mM EDTA, pH 8.2, human acidic fibroblast growth factor (FGF-1) in 6.2 mM sodium biphosphate, 120 mM sodium chloride, pH 7.2, porcine somatotropin (pST) [provided by Pfizer, Inc., Groton, Conn., USA] in 10 mM phosphate, pH 6. 1, human apolactoferrin (HLF) [Sigma] in 20 mM HEPES, 154 mM NaCl, pH 7.4, porcine heart citrate synthase (CS) in 40 mM HEPES, 50 mM KCl, 10 mM (NH4)2SO4 mM potassium acetate, pH 7.8, and yeast alcohol dehydrogenase (ADH) [Sigma] in pH 7.0 PBS. Selection of buffer solutions was based on an extensive series of preliminary studies to obtain appropriate insolubilization kinetics as described below.
(§2) Copper O-phenanthroline (1,10-phenanthroline) was prepared by mixing copper sulfate hexahydrate [Fisher] and o-phenanthroline [Sigma] in a 1:2 ratio. 1 M Dithiothreitol (DTT) was prepared at pH 7.0 PBS. Polyethylene glycol (M.W. 8000, Union Carbide, Danbury, Conn., USA) (PEG) was prepared at 20 mg/mL in 10 mM phosphate, pH 6.1.
(§3) The following compounds were obtained from Sigma and used without further purification: oxalic acid, sodium malonate, succinic acid, glutaric acid, adipic acid, pimelic acid, suberic acid, azelaic acid, guanidine hydrochloride, ammonium formate, beta-alanine, 4-aminobutyric acid, 5-aminovaleric acid, 6-aminocaproic acid, 7-aminoheptanoic acid, hydrazine, ethylenediamine, 1,3-diaminopropane, 1,4-diaminobutane, 1,5-diaminopentane, 1,6-diaminohexane, 1,7-diaminoheptane, Glu-Glu, Glu-Lys, Lys-Lys, diglycine, triglycine, tetraglycine, pentaglycine, and hexaglycine. […] Triglycine and tetraglycine were dissolved in pH 8.6 PBS, while pentaglycine and hexaglycine were dissolved in pH 10.6 PBS.
(§4) Each was either dissolved in pH 7.0 PBS, or pH 6.1 10 mM phosphate, and adjusted to the same pH.
(§5) Protein aggregation was monitored for 1 hour at 360 nm using an HP8453 UV-visible spectrophotometer system [Hewlett Packard, Germany]. […] Insulin (0.25 mg/mL (4.39E-5 M)) aggregation was monitored at 25° C. after addition of potential inhibitors and 20 μL of 1 M DTT (1.27E-4 M). Alpha-lactabumin (0.4 mg/mL (2.82E-5 M)) aggregation was monitored at 37° C. in the presence of 20 μL of 1 M DTT (1.27E-4 M). Lysozyme (0.4 mg/mL (2.86E-5 M)) aggregation was monitored at 25° C. in the presence of 20 μL of 1 M DTT (1.27E-4 M). FGF-1 (50 μg/mL (3.12E-6 M)) aggregation was monitored at 50° C. Porcine somatotropin (1.27 mg/mL (5.76E-5 M)) aggregation was monitored at 60° C. in the presence of PEG 8000 (20 mg/mL) which was included to enhance the protein association process through a simple exclusion volume effect. HLF (0.4 mg/mL (5.23E-6 M)) aggregation was monitored at 43° C. in the presence of 1.27E-4 M DTT. Citrate synthase (96 μg/mL (9.80E-7 M)) aggregation was monitored at45° C. ADH (1 mg/mL (7.14E-6 M)) was monitored at 37° C. following the addition of 7.76E-5 M Cu(OP)2. Aggregation was compared to protein in the absence of the particular dipolar compound. After stirring, experiments were initiated by the addition of proteins followed by stressing reagents to 1 cm pathlength cuvettes employing a seven-position thermostatted sample holder that was cycled at 30-second intervals. Alternatively, a microtiter plate reader was employed under the same conditions in a 96 well format.
(§6) All optical density (OD)360nm versus time results were exported into Excel [Microsoft] for data analysis.

[2] = molecular target: T2, porcine heart citrate synthase (CS) (Sus scrofa, UniProt P00889); assay: Citrate synthase thermal aggregation (turbidity at 360 nm); conditions: for inhibition index: CS 96 μg/mL, 45° C., standard deviation in parenthesis
T2 construct: porcine heart citrate synthase (CS); from tissue; host or cells: porcine heart
T2 sequence (P00889 28-464): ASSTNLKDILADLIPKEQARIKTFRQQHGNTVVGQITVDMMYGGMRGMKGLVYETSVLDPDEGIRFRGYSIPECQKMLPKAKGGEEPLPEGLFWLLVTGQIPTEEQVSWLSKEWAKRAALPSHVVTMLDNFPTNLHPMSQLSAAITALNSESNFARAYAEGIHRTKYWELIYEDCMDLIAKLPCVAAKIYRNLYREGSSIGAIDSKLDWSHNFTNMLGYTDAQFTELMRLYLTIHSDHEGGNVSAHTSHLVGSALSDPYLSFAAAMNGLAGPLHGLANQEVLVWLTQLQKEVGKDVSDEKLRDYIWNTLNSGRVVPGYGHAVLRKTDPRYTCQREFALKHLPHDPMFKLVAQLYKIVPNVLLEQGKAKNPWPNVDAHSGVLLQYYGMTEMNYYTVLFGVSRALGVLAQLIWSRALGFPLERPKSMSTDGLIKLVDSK
Description: as §1, §3, §4, §5
(§7) All optical density (OD)360nm versus time results were exported into Excel [Microsoft] for data analysis. […] The maximum rate of change in OD versus time plots (r) was used to determine the rate of the reaction from the slope at this point.

[3] = molecular target: human acidic fibroblast growth factor (FGF-1) (Homo sapiens, UniProt P05230); assay: FGF-1 thermal aggregation (turbidity at 360 nm); conditions: for inhibition index: FGF-1 50 μg/mL, 50° C., standard deviation in parenthesis
Description: as §1, §3, §4, §5, §7

[4] = molecular target: T3, porcine somatotropin (pST) (Sus scrofa, UniProt P01248); assay: Porcine somatotropin aggregation (turbidity at 360 nm) with PEG 8000; conditions: pST 1.27 mg/mL, 60° C., standard deviation in parenthesis
T3 construct: purchased Pfizer, Inc., Groton, Conn., USA (provided, not bought)
T3 sequence (P01248 27-216): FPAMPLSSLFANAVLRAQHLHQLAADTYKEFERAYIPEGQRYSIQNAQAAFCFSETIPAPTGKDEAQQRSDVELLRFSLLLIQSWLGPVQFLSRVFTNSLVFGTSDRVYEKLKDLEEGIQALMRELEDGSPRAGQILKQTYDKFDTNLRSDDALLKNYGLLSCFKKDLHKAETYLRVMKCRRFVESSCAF
Description: as §1, §2, §3, §4, §5, §6

human acidic fibroblast growth factor (FGF-1), sequence (P05230 whole entry): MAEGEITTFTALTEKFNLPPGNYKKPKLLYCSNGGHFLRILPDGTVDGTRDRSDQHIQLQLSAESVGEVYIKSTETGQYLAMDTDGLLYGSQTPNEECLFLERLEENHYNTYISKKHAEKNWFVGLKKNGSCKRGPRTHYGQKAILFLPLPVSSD
T1 sequence (P00698 19-147): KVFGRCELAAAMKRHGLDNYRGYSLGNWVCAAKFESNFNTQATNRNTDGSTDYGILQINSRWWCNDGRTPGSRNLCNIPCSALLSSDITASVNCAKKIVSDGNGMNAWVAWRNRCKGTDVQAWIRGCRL

| Molecule | inhibition index [1] | inhibition index ([2]; compound 10,000X) | inhibition index ([2]; compound 50,000X) | inhibition index ([3]; compound 1,000×) | inhibition index ([3]; compound 10,000×) | inhibition of FGF-1 aggregation, in words ([3]; text and FIG. 2 (1,000X to 50,000X)) | inhibition index ([4]; compound 100X) | inhibition index ([4]; compound 2,000X) | inhibition index ([2]; compound 1,000X) | inhibition of citrate synthase aggregation, in words [2] |
| --- | --- | --- | --- | --- | --- | --- | --- | --- | --- | --- |
| O=C(O)C(=O)O [oxalate, oxalic acid] | 1.6 (1.0) | 1.9 (0.5) | 6.2 (3.8) | 5.2 (1.5) | 605.5 (89.1) | effective inhibitors | 0.8 (0.1) | 1.5 (0.3) |  |  |
| diglycine | 0.9 (0.0) | 0.9 (0.3) | 1.5 (0.2) | 1.0 (0.1) | 1.2 (0.4) |  | 1.9 (0.3) |  | 0.8 (0.1) | Potent inhibitors |
| O=C(O)CCCC(=O)O [glutarate, glutaric acid] | 1.2 (0.3) | 1.4 (0.5) | 6.5 (0.3) | 3.0 (0.9) | 10.8 (8.4) |  | 0.9 (0.1) | 3.1 (0.7) |  |  |
| NCCCCCCN [1,6-diaminohexane] | 1.0 (0.1) | 0.6 (0.2) | 4.8 (1.5) | 1.6 (0.6) | 27.0 (9.8) |  | 0.6 (0.1) | 1.9 (0.2) |  |  |
| Lys-Lys | 1.3 (0.1) | 1.6 (0.3) | 86.8 | 1.1 (0.1) | 3.1 (0.8) |  | 0.9 (0.1) |  | 0.9 (0.1) |  |
| NCCCCCCC(=O)O [7-aminoheptanoate, 7-aminoheptanoic acid] | 1.3 (0.2) | 0.5 (0.1) | 1.7 (0.4) | 0.9 (0.4) | 1.3 (0.1) |  | 0.4 (0.0) | 1.6 (0.2) |  |  |
| NCCCCCN [1,5-diaminopentane] | 1.3 (0.3) | 0.8 (0.2) | 8.3 (4.5) | 3.3 (0.7) | 46.5 (19.8) |  | 0.8 (0.3) | 1.7 (0.4) |  |  |
| NCCCN [1,3-diaminopropane] | 2.7 (0.4) | 0.7 (0.3) | 7.7 | 2.2 (0.3) | 3.5 (2.3) |  | 0.6 (0.0) | 1.7 (0.2) |  |  |

Next, values leading:

| inhibition index [1] | inhibition index ([2]; compound 10,000X) | inhibition index ([2]; compound 50,000X) | inhibition index ([3]; compound 1,000×) | inhibition index ([3]; compound 10,000×) | inhibition of FGF-1 aggregation, in words ([3]; text and FIG. 2 (1,000X to 50,000X)) | inhibition index ([4]; compound 100X) | inhibition index ([4]; compound 2,000X) | inhibition index ([2]; compound 1,000X) | inhibition of citrate synthase aggregation, in words [2] | Molecule |
| --- | --- | --- | --- | --- | --- | --- | --- | --- | --- | --- |
| 2.1 (0.5) |  |  | 3.8 (0.8) |  |  | 0.8 (0.1) | 3.4 (0.6) | 1.5 (0.1) |  | tetraglycine |
| 0.8 (0.2) | 0.5 (0.1) | 1.5 (0.8) | 2.2 (0.3) | 2.4 (0.5) |  | 0.5 (0.1) | 1.2 (0.2) |  |  | NCCCCCC(=O)O [6-aminocaproate, 6-aminocaproic acid] |
| 1.4 (0.2) | 1.1 (0.2) | 14.1 (2.1) | 2.3 (0.5) | 7.1 (5.4) |  | 0.7 (0.0) | 1.7 (0.3) |  |  | O=C(O)CCCCCCC(=O)O [suberate, suberic acid] |
| 1.6 (0.2) | 0.9 (0.3) | 4.0 (2.3) | 2.5 (1.3) | 33.7 (6.6) |  | 0.6 (0.1) | 1.4 (0.4) |  |  | NCCCCN [1,4-diaminobutane] |
| 1.0 (0.3) | 2.1 (0.5) | 9.6 | 2.1 (0.4) | 9.2 (1.9) |  | 0.9 (0.1) | 2.1 (0.3) |  |  | O=C(O)CCC(=O)O [succinate, succinic acid] |
| 1.5 (0.4) | 0.7 (0.1) | 1.9 (0.7) | 1.1 (0.2) | 2.2 (1.4) |  | 0.4 (0.0) | 0.7 (0.1) |  |  | NCCCCC(=O)O [5-aminovalerate, 5-aminovaleric acid] |
| 1.0 (0.2) | 0.8 (0.2) |  | 1.3 (0.3) | 3.0 (1.7) |  | 0.4 (0.1) | 1.2 (0.2) |  |  | NCC(=O)O [glycine] |
| 1.0 (0.3) | 0.6 (0.2) | 1.7 (0.7) | 2.0 (0.7) | 6.2 (2.4) |  | 0.7 (0.0) | 1.6( 0.7) |  |  | NCCCCCCCN [1,7-diaminoheptane] |
| 1.4 (0.8) | 1.2 (0.5) | 19.6 (17.1) | 3.0 (0.7) | 5.0 (3.3) |  | 0.9 (0.1) | 3.9 (0.7) |  |  | O=C(O)CCCCC(=O)O [adipate, adipic acid] |
| 0.2 (0.1) |  |  |  |  |  | 0.7 (0.2) |  | 0.6 (0.2) |  | pentaglycine |
